The results in this text go back to ChEMBL document CHEMBL1201862, “PubChem BioAssay data set” (2004).

Test systems include SK-MEL-2; A498; SN12C; SW-620; DLD-1; NCI-H522; NCI-H226; OVCAR-4; SR; COLO 205; HCT-15; LOX IMVI; NCI-H23; EKVX.
Holding throughout (assay): DTP human tumour cell line panel, 48 h

Molecules are shown by their SMILES.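 All cell lines were grown in 96-well plates and treated with compound for 48 hours. Here, GI50 denotes the concentration required for 50% inhibition of growth.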 Activity calls are given as the source filed them. No stated cut-off is given here; in the data, active = GI50 up to about 1.1 µM and inactive = higher. Some results are limits rather than exact numbers.

Consider `N#CCCN(c1ccc(/C=C2\N=C(c3ccc(Cl)cc3)OC2=O)cc1)S(=O)(=O)c1ccccc1`, for which the GI50 with SK-MEL-2, with A498, in the assay with SN12C, with SW-620, with DLD-1 and with NCI-H522 was > 100 µM (inactive) in each case. In addition, the GI50 was 96.2 µM (inactive) in the assay with NCI-H226; > 100 µM (inactive) in the assay on OVCAR-4; > 100 µM (inactive) in the assay on SR; > 100 µM (inactive) in the assay on COLO 205; above 100 µM in the assay with HCT-15; > 100 µM (inactive) with LOX IMVI. Moreover, the GI50 in the assay with NCI-H23 and in the assay on EKVX was > 100 µM (inactive) throughout.

For the compound `Cc1c(C2Cc3ccccc3N2)c2ccccc2n1C` (stereo not given), the GI50 with SK-MEL-2, in the assay on A498, in the assay on SN12C, in the assay on SW-620, in the assay with DLD-1 and with NCI-H522 was > 100 µM (inactive) in each case. Besides, the GI50 is > 100 µM (inactive) in the assay on NCI-H226; > 100 µM (inactive) in the assay on OVCAR-4; > 100 µM (inactive) with SR; > 100 µM (inactive) in the assay with COLO 205; 36.3 µM in the assay on HCT-15; > 100 µM (inactive) in the assay on LOX IMVI. Moreover, the GI50 in the assay with NCI-H23 and in the assay with EKVX was > 100 µM (inactive) throughout.

`Cc1cccc(C)c1NC(=O)CCc1nnc2s/c(=C\c3ccc(Cl)cc3)c(=O)n12`: the GI50 was 60.5 µM (inactive) in the assay on SK-MEL-2; > 100 µM (inactive) in the assay with A498; > 100 µM (inactive) in the assay on SN12C; 21.2 µM (inactive) with SW-620; 37.8 µM (inactive) in the assay on DLD-1; > 100 µM (inactive) in the assay on NCI-H522. Besides, the GI50 in the assay on NCI-H226 was 97.5 µM (inactive); in the assay with OVCAR-4, > 100 µM (inactive); with SR, > 100 µM (inactive); in the assay with COLO 205, 92 µM (inactive); in the assay with HCT-15, 19.1 µM; in the assay with LOX IMVI, > 100 µM (inactive). Moreover, the GI50 in the assay with NCI-H23 and in the assay on EKVX was > 100 µM (inactive) each time.

With `CCC1C(C(=O)Nc2ccccc2C)=C(C)NC(C)=C1c1ccccc1C` (stereo not given), the GI50 with SK-MEL-2 is > 100 µM (inactive); with A498, > 100 µM (inactive); with SN12C, > 100 µM (inactive); with SW-620, > 43.1 µM (inactive); in the assay with DLD-1 it was > 39.7 µM (inactive); with NCI-H522, > 100 µM (inactive). The GI50 in the assay on NCI-H226 was > 100 µM (inactive); with OVCAR-4, > 100 µM (inactive); with SR it was 2.88 µM (inactive); in the assay with COLO 205 it was > 77.1 µM (inactive); in the assay on HCT-15, above 40.1 µM; in the assay on LOX IMVI, > 57.8 µM (inactive). Also, the GI50 in the assay with NCI-H23 and in the assay on EKVX was > 100 µM (inactive) throughout.

For `Cc1ccc2c(c1)SC(c1cc3c(cc1Br)OCO3)S2` (stereo not given), the GI50 in the assay with SK-MEL-2 was > 31.6 µM (inactive); in the assay on A498, > 31.6 µM (inactive); in the assay with SN12C it was > 31.6 µM (inactive); with SW-620, 86.1 µM (inactive); in the assay with DLD-1, > 31.6 µM (inactive); with NCI-H522, 24.7 µM (inactive). Further, the GI50 was > 31.6 µM (inactive) in the assay with NCI-H226; > 31.6 µM (inactive) in the assay with OVCAR-4; 23.3 µM (inactive) in the assay on SR; > 31.6 µM (inactive) in the assay on COLO 205; 25.4 µM in the assay with HCT-15; > 31.6 µM (inactive) in the assay with LOX IMVI. The GI50 in the assay on NCI-H23 and in the assay with EKVX was > 31.6 µM (inactive) throughout.
